{"source": "ChEMBL document CHEMBL1641393", "about": "“Triterpenoids and steroids from the fruits of Melia toosendan and their cytotoxic effects on two human cancer cell lines” (J Nat Prod, 2010)", "key": {"Lipaphis erysimi": {"tested_on": "Lipaphis erysimi", "assay": "Insecticidal activity against Lipaphis erysimi Kaltenbach", "assay_type": "functional"}, "U2OS": {"tested_on": "U2OS", "assay": "Cytotoxicity against human U2OS cells after 36 hrs by MTT assay", "assay_type": "functional, cell-based"}, "MCF7": {"tested_on": "MCF7", "assay": "Cytotoxicity against human MCF7 cells after 36 hrs by MTT assay", "assay_type": "functional, cell-based", "conditions": "MCF7, 36 h"}, "P388": {"tested_on": "P388", "assay": "Cytotoxicity against mouse P388 cells", "assay_type": "functional", "conditions": "read-out: ED50 (the source's name)"}}, "note": "Calls of active or inactive are those of the source. The calls are words filed in the database; no cut-off is given here."}
{"smiles": "CC[C@H](CC[C@](C)(O)[C@H]1[C@@H](O)C[C@H]2[C@@H]3[C@H](O)C=C4C[C@@H](O)CC[C@]4(C)[C@H]3CC[C@@]21C)C(C)C", "values": [{"measurement": "Activity", "setting": "Lipaphis erysimi", "value": "inactive"}, {"measurement": "IC50", "setting": "U2OS", "value": 23.2, "unit": "µg/mL"}, {"measurement": "IC50", "setting": "MCF7", "value": "> 50", "unit": "µg/mL"}]}
{"smiles": "C=C(C)C(CC[C@@H](C)[C@@H]1[C@@H](O)C[C@]2(C)C3=CC[C@H]4C(C)(C)CCC[C@]4(C)[C@H]3CC[C@@]12C)OO", "note": "(mixture of isomers) [MELIASENIN K]", "values": [{"measurement": "Activity", "setting": "Lipaphis erysimi", "value": "inactive"}, {"measurement": "IC50", "setting": "U2OS", "value": 7.2, "unit": "µg/mL"}, {"measurement": "IC50", "setting": "MCF7", "value": 2.4, "unit": "µg/mL"}]}
{"smiles": "C=C(C)C(CC[C@@H](C)[C@@H]1[C@@H](O)C[C@]2(C)C3=CC[C@H]4C(C)(C)C(=O)CC[C@]4(C)[C@H]3CC[C@@]12C)OO", "note": "(mixture of isomers) [MELIASENIN L]", "values": [{"measurement": "Activity", "setting": "Lipaphis erysimi", "value": "inactive"}, {"measurement": "IC50", "setting": "U2OS", "value": 9.5, "unit": "µg/mL"}, {"measurement": "IC50", "setting": "MCF7", "value": 9.8, "unit": "µg/mL"}]}
{"smiles": "C[C@H](C/C=C/C(C)(C)OO)[C@@H]1[C@@H](O)C[C@]2(C)C3=CC[C@H]4C(C)(C)[C@@H](O)CC[C@]4(C)[C@H]3CC[C@@]12C", "note": "(relative stereo) [MELIASENIN I]", "values": [{"measurement": "Activity", "setting": "Lipaphis erysimi", "value": "inactive"}, {"measurement": "IC50", "setting": "U2OS", "value": 9.5, "unit": "µg/mL"}, {"measurement": "IC50", "setting": "MCF7", "value": 11.2, "unit": "µg/mL"}]}
{"smiles": "C[C@H](C/C=C/C(C)(C)OO)[C@@H]1[C@@H](O)C[C@]2(C)C3=CC[C@H]4C(C)(C)C(=O)CC[C@]4(C)[C@H]3CC[C@@]12C", "note": "(relative stereo) [MELIASENIN J]", "values": [{"measurement": "Activity", "setting": "Lipaphis erysimi", "value": "inactive"}, {"measurement": "IC50", "setting": "U2OS", "value": 14.3, "unit": "µg/mL"}, {"measurement": "IC50", "setting": "MCF7", "value": 1.1, "unit": "µg/mL"}]}
{"smiles": "CC(C)C(C)CC[C@](C)(O)[C@H]1[C@@H](O)C[C@H]2[C@@H]3[C@H](O)C=C4C[C@@H](O)CC[C@]4(C)[C@H]3CC[C@@]21C", "note": "(single isomer, unassigned)", "values": [{"measurement": "Activity", "setting": "Lipaphis erysimi", "value": "inactive"}, {"measurement": "IC50", "setting": "U2OS", "value": 9.4, "unit": "µg/mL"}, {"measurement": "IC50", "setting": "MCF7", "value": 47.4, "unit": "µg/mL"}]}
{"smiles": "O=c1[nH]cc(F)c(=O)[nH]1", "note": "[FLUOROURACIL]", "values": [{"measurement": "IC50", "setting": "U2OS", "value": 7.2, "unit": "µg/mL"}, {"measurement": "IC50", "setting": "MCF7", "value": 34, "unit": "µg/mL"}]}
{"smiles": "CC(C)=CCC[C@@H](C)[C@@H]1[C@@H](O)C[C@]2(C)C3=CC[C@H]4C(C)(C)C(=O)CC[C@]4(C)[C@H]3CC[C@@]12C", "note": "[KULINONE]", "values": [{"measurement": "Activity", "setting": "Lipaphis erysimi", "value": "inactive"}, {"measurement": "IC50", "setting": "U2OS", "value": 6.9, "unit": "µg/mL"}, {"measurement": "IC50", "setting": "MCF7", "value": 42.5, "unit": "µg/mL"}, {"measurement": "EC50", "setting": "P388", "value": 1.7, "unit": "µg/mL"}]}
{"smiles": "CC(C)(/C=C/C[C@H]1C(=O)O[C@H]2C[C@]3(C)C4=CC[C@H]5C(C)(C)C(=O)CC[C@]5(C)[C@H]4CC[C@@]3(C)[C@@H]21)OO", "note": "[MELIASENIN M]", "values": [{"measurement": "Activity", "setting": "Lipaphis erysimi", "value": "inactive"}, {"measurement": "IC50", "setting": "U2OS", "value": 29.2, "unit": "µg/mL"}, {"measurement": "IC50", "setting": "MCF7", "value": 16.4, "unit": "µg/mL"}]}
{"smiles": "C=C(C)[C@H](CC[C@H]1C(=O)O[C@H]2C[C@]3(C)C4=CC[C@H]5C(C)(C)C(=O)CC[C@]5(C)[C@H]4CC[C@@]3(C)[C@@H]21)OO", "note": "[MELIASENIN N]", "values": [{"measurement": "Activity", "setting": "Lipaphis erysimi", "value": "inactive"}, {"measurement": "IC50", "setting": "U2OS", "value": 8.8, "unit": "µg/mL"}, {"measurement": "IC50", "setting": "MCF7", "value": 3, "unit": "µg/mL"}]}
{"smiles": "C=C(C)[C@@H](CC[C@H]1C(=O)O[C@H]2C[C@]3(C)C4=CC[C@H]5C(C)(C)C(=O)CC[C@]5(C)[C@H]4CC[C@@]3(C)[C@@H]21)OO", "note": "[MELIASENIN O]", "values": [{"measurement": "Activity", "setting": "Lipaphis erysimi", "value": "inactive"}, {"measurement": "IC50", "setting": "U2OS", "value": 23.9, "unit": "µg/mL"}, {"measurement": "IC50", "setting": "MCF7", "value": 2.3, "unit": "µg/mL"}]}
{"smiles": "CO[C@H]1O[C@@H]([C@@H]2OC2(C)C)C[C@H]1[C@@H]1CC[C@]2(C)C3=CC[C@H]4C(C)(C)[C@@H](O)CC[C@]4(C)[C@H]3CC[C@@]12C", "note": "[MELIASENIN P]", "values": [{"measurement": "Activity", "setting": "Lipaphis erysimi", "value": "inactive"}, {"measurement": "IC50", "setting": "U2OS", "value": 48.7, "unit": "µg/mL"}, {"measurement": "IC50", "setting": "MCF7", "value": 6.4, "unit": "µg/mL"}]}
{"smiles": "CCCCCCCCCCCCCCCC(=O)O[C@H]1CC[C@]2(C)[C@H]3CC[C@@]4(C)[C@H]([C@@H]5C[C@H]([C@H](O)C(C)(C)O)O[C@@H]5OC)CC[C@]4(C)C3=CC[C@H]2C1(C)C", "note": "[MELIASENIN Q]", "values": [{"measurement": "Activity", "setting": "Lipaphis erysimi", "value": "inactive"}, {"measurement": "IC50", "setting": "U2OS", "value": 3.9, "unit": "µg/mL"}, {"measurement": "IC50", "setting": "MCF7", "value": "> 50", "unit": "µg/mL"}]}
{"smiles": "COC(=O)[C@H](C/C=C/C(C)(C)OO)[C@@H]1[C@@H](O)C[C@]2(C)C3=CC[C@H]4C(C)(C)C(=O)CC[C@]4(C)[C@H]3CC[C@@]12C", "note": "[MELIASTATIN 3]", "values": [{"measurement": "Activity", "setting": "Lipaphis erysimi", "value": "inactive"}, {"measurement": "IC50", "setting": "U2OS", "value": 31.1, "unit": "µg/mL"}, {"measurement": "IC50", "setting": "MCF7", "value": 48.6, "unit": "µg/mL"}, {"measurement": "EC50", "setting": "P388", "value": 1.7, "unit": "µg/mL"}]}
{"smiles": "C=C(C)C(O)CC[C@@H](C)[C@@H]1[C@@H](O)C[C@]2(C)C3=CC[C@H]4C(C)(C)C(=O)CC[C@]4(C)[C@H]3CC[C@@]12C", "note": "(stereo partly specified) [MELIASTATIN 5]", "values": [{"measurement": "Activity", "setting": "Lipaphis erysimi", "value": "inactive"}, {"measurement": "IC50", "setting": "U2OS", "value": 9.5, "unit": "µg/mL"}, {"measurement": "IC50", "setting": "MCF7", "value": 16, "unit": "µg/mL"}, {"measurement": "EC50", "setting": "P388", "value": 1.7, "unit": "µg/mL"}]}
{"smiles": "COC(=O)[C@H](CCC=C(C)C)[C@@H]1[C@@H](O)C[C@]2(C)C3=CC[C@H]4C(C)(C)C(=O)CC[C@]4(C)[C@H]3CC[C@@]12C", "note": "[METHYL KULONATE]", "values": [{"measurement": "Activity", "setting": "Lipaphis erysimi", "value": "inactive"}, {"measurement": "IC50", "setting": "U2OS", "value": 14.6, "unit": "µg/mL"}, {"measurement": "IC50", "setting": "MCF7", "value": 0.41, "unit": "µg/mL"}, {"measurement": "EC50", "setting": "P388", "value": 1.7, "unit": "µg/mL"}]}
